# Laboratory results published in US20050282747A1, “Methods and compositions for wound healing” (The Research Foundation of State University of New York at …, priority 2003, published 2005).
# Assays:
# NIH 3T3 fibroblasts [1] = assay: Cell proliferation inside the RGD-peptide coupled HA-DTPH/PEGDA hydrogel (MTT assay, F-DA/PI staining); type: cell-based; conditions: NIH 3T3 encapsulated at 1×10^6/ml; day 15 compared to day 1
# Description: Cell proliferation inside the RGD-peptide coupled HA-DTPH/PEGDA hydrogel. NIH 3T3 fibroblasts were suspended in 1.25% (w/v) HA-DTPH solution in complete medium (pH 7.4) at a density of 1×10^6/ml, and then 1 ml of stock peptide-coupled PEGDA or blank PEGDA solution (see hydrogel preparation) was added into 4 ml of cell/HA-DTPH mixture solution. After mixed, 200 μl of the mixture of HA-DTPH/PEG-diacrylate/T31 fibroblasts was injected into each well of 24-well plates. After 1 h, 1.0 ml of complete medium was added into each well and incubated in 37° C. 5% CO2 incubator. The medium was changed every day without damaging the hydrogel. The viability of NIH 3T3 fibroblast inside hydrogel following 1, 5 and 15 d in vitro culture was determined by a double-staining procedure (Saha, et al., Dev. Comp. Immunol. 27:351, 2003) using fluorescein diacetate (F-DA) and propidium iodide (PI). Briefly, cell-hydrogel constructs were rinsed twice with DPBS buffer, stained with F-DA (0.02 mg/ml)(Molecular Probes, Eugene, Oreg.) and PI (0.2 μg/ml)(Sigma) at room temperature for 3 min, rinsed twice with DPBS buffer, stored on ice, and observed under confocal microscope (Zeiss Axioplan 2 Imaging System, LSM 5 Pa).
# The cell proliferation inside hydrogel following in vitro culture of day 1, 5, 10 and 15 was determined by MTT (3-[4,5-dimethylthiazol-2-yl]-2,5-diphenyltetrazolium bromide) assay (Sigma). A 1% MTT in serum-free media solution was added to each well containing the cell-hydrogel construct. Active mitochondria metabolize the tetrazolium salt to form an insoluble formazin dye. After 8 h of incubation, the constructs were placed in 10 ml glass vials and 2 ml 0.04 N HCl in isopropanol was added to extract the formazin. The absorbance was recorded at 550 nm with an OPTI Max microplate reader (Molecular Devices) and was converted into a cell number based on standard curves.
# NIH 3T3 fibroblasts [2] = assay: Cell proliferation on the RGD-peptide coupled HA-DTPH/PEGDA hydrogel surface (MTS assay); type: cell-based; conditions: PEGDA 3400; for proliferation of NIH 3T3 fibroblasts on surface: in 24 h, peptide concentration in bulk 0.268 mM
# Description: Cell proliferation on the RGD-peptide coupled HA-DTPH/PEGDA hydrogel surface. Peptide-coupled HA-DTPH/PEGDA hydrogels or hydrogel films in 24-well plates were rinsed 3 times with complete medium, and then CF-31 and NIH 3T3 fibroblasts were seeded on the surface of the hydrogel or hydrogel film surface at a density of 1×10^4/well. After that 1 ml of complete medium was added into each well, and the cells were cultured at 37° C. in a humidified 5% CO2 incubator and the medium was changed daily. At different time points (day 1, 2, 3 and 4), the cell number was determined by MTS assay (Cell-Titer 96 Proliferation Kit, Promega, Madison, Wis.) as previously described Shu, et al., Biomacromolecules 3:1304, 2002; Ren and Tang, Anticancer Res. 19:403, 1999) and the absorption recorded at 550 nm with an OPTI Max microplate reader (Molecular Devices). Cell numbers were obtained using standard curves generated from the assay.
# CF-31 fibroblasts = assay: Cell spreading on RGD-peptide coupled HA-DTPH/PEGDA hydrogel surface, CF-31; type: cell-based, human; conditions: for percentage of spreading cells / percentage of round cells: complete medium, 18 h post seeding
# Description: (§1) Cell culture. Dermal fibroblasts from a person (CF-31) (Clonetics, San Diego) and NIH 3T3 fibroblast (ATCC) were routinely cultured in completed DMEM/F-12 medium supplied with 10% new-born calf serum (for NIH 3T3 fibroblast) or fetal bovine serum (for CF-31 fibroblast), 2 mM L-glutamine and 100 units/ml antibotic-antimycotic (GIBCO BRL, Life Technologies, Grand Island, N.Y.), and 50 μg/ml ascorbic acid (Sigma) at 37° C. in a humidified 5% CO2 incubator. Monolayers of fibroblasts in their growth phase (ca. 90% confluence) were dissociated with trypsin/1 mM EDTA in DPBS, centrifuged and resuspended in the serum free medium or complete medium.
# Cell spreading on the RGD-peptides coupled HA-DTPH/PEGDA hydrogel surface. HA-DTPH/PEGDA hydrogels or hydrogel films in 24-well plate were rinsed with serum free medium or complete medium 3 times, and then CF-31 and NIH 3T3 fibroblasts were seeded on the surface of the hydrogel or hydrogel film surface at a density of 4×10^4/well. Then, 1 ml of serum free medium or complete medium was added into each well, and the cells were cultured at 37° C. in a humidified 5% CO2 incubator. At 2, 4, 8 and 18 h post seeding, 0.4 ml of 10% formalin solution (Sigma) was added into each well to fix cell for 15 min. The cells were then stained at room temperature with 0.1% crystal violet in 200 mM boric acid (pH 8.0) for 15 minutes. Photomicrographs of the cytoplasmic-stained cells were taken a 100×total magnification using an inverted Nikon microscope with a CCD camera on a minimum of five random fields per well (n=3 per composition). The bundled Spot 3.0 software (Diagnostic Instruments, Sterling Heights, MI) was used to classify the cell morphology into 3 categories viz. round, partially spread or fully spread as reported by Neff etc[47]. It was defined that cells with surface area <2000 pixels^2 were completely round, 2000 pixels^2 <cells with area <8000 pixels^2 had few cytoplasmic extensions although they maintained a somewhat round appearance, and cells with surface areas >8000 pixels^2 were fully spreading and had multiple cytoplasmic extensions in various directions.
# NIH 3T3 fibroblasts [3] = assay: Cell spreading on RGD-peptide coupled HA-DTPH/PEGDA hydrogel surface, NIH 3T3; type: cell-based
# Description: as §1
# Cell spreading on the RGD-peptides coupled HA-DTPH/PEGDA hydrogel surface. HA-DTPH/PEGDA hydrogels or hydrogel films in 24-well plate were rinsed with serum free medium or complete medium 3 times, and then CF-31 and NIH 3T3 fibroblasts were seeded on the surface of the hydrogel or hydrogel film surface at a density of 4×10^4/well. Then, 1 ml of serum free medium or complete medium was added into each well, and the cells were cultured at 37° C. in a humidified 5% CO2 incubator. At 2, 4, 8 and 18 h post seeding, 0.4 ml of 10% formalin solution (Sigma) was added into each well to fix cell for 15 min. The cells were then stained at room temperature with 0.1% crystal violet in 200 mM boric acid (pH 8.0) for 15 minutes. […]
# NIH 3T3 fibroblasts [4] = assay: Injectable fibrous tissue regeneration in nude mouse, histology and procollagen immunohistochemistry; type: in vivo, nude mice
# Description: RGD-peptide coupled HA-DTPH/PEGDA hydrogel for injectable fibrous tissue regeneration in nude mouse. Animal experiments were carried out according to NIH guidelines for the care and use of laboratory animals (NIH publication #85-23 rev. 1985). Male nude mice (n=12) (Simonsen Laboratories Inc., Gilroy, Calif.), 4-6 weeks old were anesthetized with 2.5% isoflurane using a VetEquip inhalation anesthesia system (Pleasanton, Calif.). NIH 3T3 fibroblasts were suspended in 1.25% (w/v) HA-DTPH solution in complete medium (pH 7.4) at a density of 50×10^6 cell/ml, and then 1 ml stock CRGDS-coupled PEGDA (peptide concentration 10/100) or blank PEGDA (see 2.4 hydrogel preparation) was added into 4 ml cell/HA-DTPH mixture solution and mixed. Each nude mouse received four 300 μl s.c. dorsal injections by means of an 18-gauge needle under the dorsal panniculus camosus (two 300 μl solution with cells and two 300 μl solution without cells as control). At each time point (4 and 8 weeks after implantation), two nude mice were sacrificed, and the implants with the surrounding tissues were removed from the mouse, fixed in 10% buffered formalin solution (Sigma) for 24 h, embedded in paraffin, cut into 5-μm sections, and mounted onto slides.
# Histological and immunohistochemical staining. […]
# [5] = peptide concentration in bulk 0.0054 mM
# [6] = peptide concentration in bulk 0.0268 mM
# [7] = peptide concentration in bulk 0.134 mM
# [8] = peptide concentration in bulk 0.268 mM
# [9] = PEG spacer molecular weight 3400, peptide concentration in bulk 0.268 mM
substance,measurement,setting,value
CCRGDS,cell proliferation inside the hydrogel,NIH 3T3 fibroblasts [1],253%
same,proliferation of NIH 3T3 fibroblasts on surface,NIH 3T3 fibroblasts [2],1.50 fold
same,percentage of spreading cells,CF-31 fibroblasts; [5],8.3%
same,percentage of spreading cells,CF-31 fibroblasts; [6],12.4%
same,percentage of spreading cells,CF-31 fibroblasts; [7],36.8%
same,percentage of spreading cells,CF-31 fibroblasts; [8],46.5%
CRGDS,cell area,NIH 3T3 fibroblasts [3]; at 4 and 8 h,larger than that for CCRGDS
same,cell proliferation inside the hydrogel,NIH 3T3 fibroblasts [1],253%
same,cell density relative to cell culture polystyrene control,"NIH 3T3 fibroblasts [2]; hydrogel film surface, 4 days culture, CRGDS concentration in bulk 0.268 mM",ca. 80%
same,proliferation of NIH 3T3 fibroblasts on surface,NIH 3T3 fibroblasts [2],1.64 fold
same,round cell percent,"CF-31 fibroblasts; PEG spacer molecular weight 700, peptide concentration in bulk 0.268 mM",75.6%
same,round cell percent,CF-31 fibroblasts; [9],9.4%
same,spreading percent of CF-31 fibroblast,CF-31 fibroblasts; [9],53%
same,percentage of round cells,CF-31 fibroblasts; [5],51.2%
same,percentage of spreading cells,CF-31 fibroblasts; [5],19.1%
same,percentage of spreading cells,CF-31 fibroblasts; [6],31.3%
same,percentage of spreading cells,CF-31 fibroblasts; [7],48.2%
same,percentage of round cells,CF-31 fibroblasts; [8],18%
same,percentage of spreading cells,CF-31 fibroblasts; [8],53.0%
same,fibrous tissue and procollagen versus hydrogel lacking the peptide,"NIH 3T3 fibroblasts [4]; cell-seeded hydrogel, 4 weeks post-injection",More uniform fibrous tissue and procollagen
same,signs of biological incompatibility (necrosis or damage to the surrounding tissues),"NIH 3T3 fibroblasts [4]; s.c. injection in nude mice, gel formed in vivo",No signs of biological incompatibility
CRDGS [reference compound],cell morphology on hydrogel surface,NIH 3T3 fibroblasts [3]; 4 and 8 h post-seeding,the cells were rounded
same,cell proliferation inside the hydrogel,NIH 3T3 fibroblasts [1],245%
same,proliferation of NIH 3T3 fibroblasts on surface,NIH 3T3 fibroblasts [2],no spreading or proliferation was observed
same,cell attachment and spreading,"CF-31 fibroblasts; CF-31, serum free medium",failed to promote cell spreading
